Assay results as given in PubChem BioAssay (NCI).
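96-well plates; 48 h exposure; 5 concentrations. Endpoints by linear interpolation between flanking doses. Not reached: highest tested concentration assigned. At the TGI there is no net growth.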

Tests used:
Test in all cases: inhibition of tumour cell growth, NCI panel, 48 h
786-0 renal = system: 786-0 renal
BT-549 breast = system: BT-549 breast
CAKI-1 renal = system: CAKI-1 renal
COLO 205 colon = system: COLO 205 colon
DU-145 prostate = system: DU-145 prostate
HCC-2998 colon = system: HCC-2998 colon
HOP-62 NSCLC = system: HOP-62 NSCLC
NCI-H226 lung = system: NCI-H226 lung
NCI-H460 lung = system: NCI-H460 lung
OVCAR-3 ovarian = system: OVCAR-3 ovarian
OVCAR-4 ovarian = system: OVCAR-4 ovarian
OVCAR-5 ovarian = system: OVCAR-5 ovarian
RPMI-8226 leukemia = system: RPMI-8226 leukemia
SF-268 CNS = system: SF-268 CNS
SK-MEL-28 melanoma = system: SK-MEL-28 melanoma
SNB-19 CNS = system: SNB-19 CNS
SR leukemia = system: SR leukemia
SW-620 colon = system: SW-620 colon
UO-31 renal = system: UO-31 renal
TK-10 renal = system: TK-10 renal

Row | Structure (SMILES) | TGI (786-0 renal) [µM] | TGI (BT-549 breast) [µM] | TGI (CAKI-1 renal) [µM] | TGI (COLO 205 colon) [µM] | TGI (DU-145 prostate) [µM] | TGI (HCC-2998 colon) [µM] | TGI (HOP-62 NSCLC) [µM] | TGI (NCI-H226 lung) [µM] | TGI (NCI-H460 lung) [µM] | TGI (OVCAR-3 ovarian) [µM] | TGI (OVCAR-4 ovarian) [µM] | TGI (OVCAR-5 ovarian) [µM] | TGI (RPMI-8226 leukemia) [µM] | TGI (SF-268 CNS) [µM] | TGI (SK-MEL-28 melanoma) [µM] | TGI (SNB-19 CNS) [µM] | TGI (SR leukemia) [µM] | TGI (SW-620 colon) [µM] | TGI (UO-31 renal) [µM] | TGI (TK-10 renal) [µM]
1 | CCCN1CC=C(c2cc(C(=O)OCC)[nH]c2-c2cc(C)no2)C1=O | > 100 | > 100 | > 100 | > 100 | > 100 | > 100 | > 100 | > 100 | > 100 | > 100 | > 100 | > 100 | > 100 | > 100 | > 100 | > 100 | > 100 | > 100 | > 100 | –
2 | COC(=O)C(C)(C)OCc1ccc(C2NC(=O)N(c3cccc(Cl)c3)C(=O)N2c2cccc(Cl)c2)cc1 (stereo not given) | > 100 | > 100 | > 100 | > 100 | > 100 | > 100 | > 100 | – | > 100 | > 100 | > 100 | > 100 | > 100 | > 100 | > 100 | > 100 | 96.6 | > 100 | > 100 | –
3 | COc1cc(OC)cc(OCc2ccc3nc(-c4ccccc4)c(Cl)nc3c2)c1 | 28.3 | 65.3 | 28.1 | 68.9 | > 100 | > 100 | 33.8 | – | > 100 | > 100 | > 100 | > 100 | > 100 | > 100 | > 100 | 66.9 | 48 | > 100 | > 100 | 55.6
4 | CC(=O)Nc1ccc(N=C2C(c3ccccc3)=C(SC3=C(c4ccccc4)C(=Nc4ccc(NC(C)=O)cc4)c4ccccc43)c3ccccc32)cc1 | > 100 | 73.1 | > 100 | > 100 | > 100 | > 100 | > 100 | > 100 | > 100 | > 100 | > 100 | > 100 | 81.1 | > 100 | > 100 | > 100 | > 100 | > 100 | > 100 | > 100
5 | COc1ccc(NC(=O)CC(=O)N2N=C(c3ccccc3)C(N=Nc3ccc(S(=O)(=O)CCOS(=O)(=O)O)cc3)C2=O)cc1 (stereo not given) | > 100 | > 100 | > 100 | > 100 | > 100 | > 100 | > 100 | > 100 | > 100 | > 100 | – | – | > 100 | > 100 | > 100 | > 100 | > 100 | > 100 | > 100 | > 100
6 | Cc1ccc(Cc2n[nH]c(=O)n2-c2ccccc2)cc1 | > 100 | > 100 | > 100 | – | > 100 | > 100 | – | > 100 | > 100 | – | – | > 100 | 76 | > 100 | > 100 | > 100 | > 100 | > 100 | > 100 | > 100
7 | Cc1cc(NS(=O)(=O)c2ccc(NC(=O)c3ccc4[nH]c5ccccc5c(=O)c4c3)cc2)no1 | > 100 | > 100 | > 100 | > 100 | > 100 | > 100 | > 100 | > 100 | > 100 | > 100 | > 100 | > 100 | > 100 | > 100 | > 100 | > 100 | > 100 | > 100 | > 100 | > 100
8 | COc1cc(-c2cc(=O)c3c(OC)c(OC)c(OC)cc3o2)c(OC)c(OC)c1OC | > 75 | > 75 | > 75 | > 75 | > 75 | > 75 | > 75 | > 75 | > 75 | > 75 | > 75 | > 75 | > 75 | > 75 | > 75 | > 75 | > 75 | > 75 | > 75 | > 75
9 | O=[N+]([O-])c1ccc(-c2nc3ccc([N+](=O)[O-])cc3[nH]2)cc1 | > 100 | 85.7 | > 100 | 28.2 | > 100 | > 100 | 97 | > 100 | 65.1 | > 100 | > 100 | – | > 100 | > 100 | > 100 | > 100 | > 100 | > 100 | 61.4 | > 100
10 | N#CC(c1ccnc(Cl)n1)c1nc2ccccc2s1 (stereo not given) | 16.1 | > 26 | > 45.4 | 24.6 | > 100 | 46.8 | 56.8 | > 47.4 | > 100 | 26.2 | > 100 | > 92.5 | 25.9 | > 63.6 | > 100 | > 75.1 | 28.7 | > 70.7 | 28.4 | > 60.7
11 | S=C1Cc2c(-c3ccc(Cl)cc3)cc(-c3ccccc3)nc2-c2ccccc2N1 | 21.8 | 35 | 13.1 | 49.5 | > 100 | > 100 | 24.1 | 55.7 | 36.2 | 29.8 | 18 | 92.9 | > 100 | 34.6 | > 100 | 21.5 | > 100 | > 100 | 35.8 | 30.2
12 | CC(=O)c1c(SCCN2CCCC2)n(-c2ccccc2)c(=S)n(-c2ccccc2)c1=O | 3.12 | 28.6 | 10.2 | 3.48 | 8.85 | 11.9 | 55 | 54.1 | > 46.6 | 7.22 | > 90.7 | > 100 | 4.61 | 33.2 | 14.2 | > 77.1 | > 100 | 6.76 | 2.73 | 8.5
13 | C=[N+](CNC(=O)CNC(=O)C(Cc1ccc([N+](=O)[O-])cc1)NC(=O)OC(C)(C)C)C(=O)CNC(=O)C(Cc1ccc([N+](=O)[O-])cc1)NC(=O)OC(C)(C)C (stereo not given) | > 100 | 85.5 | > 100 | > 100 | > 100 | > 100 | > 100 | > 100 | > 100 | > 100 | > 100 | > 100 | 50.4 | 61.8 | 72.6 | > 100 | 80.6 | > 100 | > 100 | > 100
14 | COC(=O)[C@@H]1C=C[C@H](OC2OC(COC(C)=O)C(OC(C)=O)C(OC(C)=O)C2OC(C)=O)n2c(=O)c3ccccc3c(=O)n21 (stereo not given in full) | 58.9 | 18.2 | 13 | 22.4 | 38.3 | 29.6 | 36.3 | 46.3 | 29 | 22.2 | 34.6 | 29.6 | 35.6 | – | 27.8 | 47.2 | > 100 | 24.9 | 27.5 | 18.3
15 | O=C(Nc1nc(C23CC4CC(CC(C4)C2)C3)cs1)c1c(O)c2ccccc2[nH]c1=O | > 100 | > 100 | > 100 | > 100 | > 100 | > 100 | > 100 | > 100 | > 100 | > 100 | > 100 | > 100 | > 100 | > 100 | > 100 | > 100 | > 100 | > 100 | > 100 | > 100
16 | CN(C)c1ccc(/C=C(\NC(=O)c2ccccc2)C(=O)NCC(=O)O)cc1 | > 100 | > 100 | > 100 | > 100 | > 100 | > 100 | > 100 | > 100 | > 100 | > 100 | – | > 100 | > 100 | > 100 | > 100 | > 100 | > 100 | > 100 | > 100 | –
17 | CC(C)(C)n1c(=O)[nH]n(C2NN=Cc3cccc4cccc2c34)c1=O (stereo not given) | > 100 | > 100 | > 100 | 74.9 | > 100 | > 100 | – | > 100 | > 100 | > 100 | > 100 | > 100 | 74.6 | > 100 | > 100 | > 100 | 37.4 | > 100 | 70.3 | > 100
18 | O=S(=O)(O)CCCC1S(=O)(=O)OCCOS1(=O)=O | > 100 | > 100 | > 100 | > 100 | > 100 | > 100 | > 100 | > 100 | > 100 | > 100 | > 100 | > 100 | > 100 | > 100 | > 100 | > 100 | > 100 | > 100 | > 100 | > 100
19 | C=C1[C@H](OC(=O)C(C)C)[C@]23CC4(O)[C@@H]5[C@@]6(C)CCC[C@]57C([C@@H]2C[C@@]1(O)[C@H](O)[C@@H]73)N4C6 | > 100 | > 100 | > 100 | > 100 | > 100 | 72.3 | > 100 | > 100 | > 100 | > 100 | > 100 | > 100 | > 100 | > 100 | > 100 | > 100 | > 100 | > 100 | > 100 | > 100
20 | Cn1c(N)c(C(N)=O)[nH]c1=S | > 100 | > 100 | – | > 100 | > 100 | > 100 | > 100 | > 100 | > 100 | > 100 | > 100 | > 100 | > 100 | > 100 | > 100 | > 100 | > 100 | > 100 | > 100 | > 100
21 | COc1ccc(/C=C2\C(=O)N(C)C(=O)c3cc(OC)c(OC)cc32)cc1OC | > 100 | 55.6 | > 100 | 47.9 | > 100 | > 100 | 90 | 34.7 | > 100 | > 100 | > 100 | > 100 | 66.9 | – | – | > 100 | 55.5 | > 100 | > 100 | > 100
22 | Cc1n[nH]c(=O)n1C1CCCC1 | > 100 | > 100 | > 100 | > 100 | > 100 | > 100 | > 100 | > 100 | > 100 | > 100 | > 100 | > 100 | > 100 | > 100 | > 100 | > 100 | > 100 | > 100 | > 100 | > 100
23 | N#CC1Cc2cc3c(cc21)OCO3 (stereo not given) | > 100 | > 100 | > 100 | > 100 | > 100 | > 100 | > 100 | > 100 | > 100 | > 100 | > 100 | > 100 | – | – | > 100 | > 100 | > 100 | > 100 | > 100 | > 100
